The values below come from patent publication US9029359B2, “Heteroaryl Btk inhibitors” (Biogen Idec MA, Inc., priority 2009, dated 2015).

For the assay, the target named is T1, BTK (Homo sapiens, UniProt Q06187).
T1 construct: purchased Upstate 14-552
Kind of assay: In vitro BTK kinase assay: BTK-POLYGAT-LS ASSAY. As to conditions: ATP 10 uM. Type of assay: biochemical. Put shortly:
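BTK phosphorylation of polyGAT (100 nM final) with ATP at 10 μM final, 10 mM Tris-HCl pH 7.5 kinase buffer, quenched by EDTA after 30 min. Potency given as IC50.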

pIC50: −log10 of the molar value. Bounds are passed on as bounds.

T1 sequence (Q06187 whole entry): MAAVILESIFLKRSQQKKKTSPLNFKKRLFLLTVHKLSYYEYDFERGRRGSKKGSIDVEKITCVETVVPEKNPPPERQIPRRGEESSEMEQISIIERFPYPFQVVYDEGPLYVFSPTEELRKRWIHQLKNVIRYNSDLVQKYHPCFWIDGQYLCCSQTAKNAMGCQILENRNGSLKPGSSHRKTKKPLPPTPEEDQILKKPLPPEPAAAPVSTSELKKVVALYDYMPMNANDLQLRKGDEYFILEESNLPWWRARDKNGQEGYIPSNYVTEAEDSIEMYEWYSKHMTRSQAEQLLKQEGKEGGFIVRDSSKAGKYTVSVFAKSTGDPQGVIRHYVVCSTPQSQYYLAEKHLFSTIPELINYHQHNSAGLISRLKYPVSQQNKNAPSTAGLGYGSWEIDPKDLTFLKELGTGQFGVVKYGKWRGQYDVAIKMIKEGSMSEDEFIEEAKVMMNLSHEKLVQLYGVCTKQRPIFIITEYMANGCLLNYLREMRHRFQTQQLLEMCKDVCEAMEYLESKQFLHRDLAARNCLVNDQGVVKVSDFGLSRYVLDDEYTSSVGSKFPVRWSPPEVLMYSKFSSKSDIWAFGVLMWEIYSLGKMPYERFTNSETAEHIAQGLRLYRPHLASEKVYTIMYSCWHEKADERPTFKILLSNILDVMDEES

Take `CC1(C)CCN(S(=O)(=O)c2ccccc2NCC(=O)N[C@@H]2CCCN(c3ncnc4[nH]ccc34)C2)CC1` [Example 250]: the pIC50 – broadly, the IC50 on a negative log10 scale, so that one unit is a factor of ten – was over 7.00. With `O=C(CNc1cc(Cl)cc(OC(F)(F)F)c1)N[C@@H]1CCCN(c2ncnc3[nH]ccc23)C1` [Example 383] the figure was over 7.00. Take `O=C(CNc1cccc2cccnc12)NC1CCCN(c2ncnc3[nH]ccc23)C1` (stereo not drawn) [Example 81, (N-(1-(7H-pyrrolo[2,3-d]pyrimidin-4-yl)piperidin-3-yl)-2-(quinolin-8-ylamino)acetamide)]: the pIC50 is 5.00 to 6.00. `NC(=O)c1cccc(NCC(=O)N[C@@H]2CCCN(c3ncnc4[nH]ccc34)C2)c1` [Example 434] showed a pIC50 of 5.00 to 6.00. Consider `CCN(C)S(=O)(=O)c1ccccc1NCC(=O)N[C@@H]1CCCN(c2ncnc3[nH]ncc23)C1` [Example 213], for which the pIC50 was over 7.00. With `CC(C)c1ccc(NCC(=O)N[C@@H]2CCCN(c3ncnc4[nH]ccc34)C2)cc1` [Example 443] the figure was 5.00 to 6.00; with `C[C@H](Nc1ccccc1)C(=O)NC1CCCN(c2ncnc3[nH]ccc23)C1` (stereo partly drawn) [Example 102, (2S)—N-(1-(7H-pyrrolo[2,3-d]pyrimidin-4-yl)piperidin-3-yl)-2-(phenylamino)propanamide], under 5.00; with `O=C(CNC1CCc2ccccc21)NC1CCCN(c2ncnc3[nH]ccc23)C1` (stereo not drawn) [Example 355], under 5.00. Compound `CS(=O)(=O)CC[C@@H](Nc1ccccc1)C(=O)N[C@@H]1CCCN(c2ncnc3[nH]ccc23)C1` [Example 116, (R)—N—((R)-1-(7H-pyrrolo[2,3-d]pyrimidin-4-yl)piperidin-3-yl)-4-(methylsulfonyl)-2-(phenylamino)butanamide] had a pIC50 of 5.00 to 6.00. `O=C(CNC(=O)c1ccccc1)NC1CCCN(c2ncnc3[nH]ccc23)C1` (stereo not drawn) [Example 3, (N-(2-(1-(7H-pyrrolo[2,3-d]pyrimidin-4-yl)piperidin-3-ylamino)-2-oxoethyl)benzamide)] had a pIC50 of 6.00 to 7.00.

`O=C(CNc1ccc(F)cc1F)NC1CCCN(c2ncnc3[nH]ccc23)C1` (stereo not drawn) [Example 67, (N-(1-(7H-pyrrolo[2,3-d]pyrimidin-4-yl)piperidin-3-yl)-2-(2,4-difluorophenylamino)acetamide)] had a pIC50 of 6.00 to 7.00.

Consider `CCN(CC)S(=O)(=O)c1ccccc1NCC(=O)N[C@@H]1CCCN(c2ncnc3[nH]ccc23)C1` [Example 208], for which the pIC50 is over 7.00. In the case of `CCCC[C@@H](Nc1cc(F)cc(Cl)c1)C(=O)N[C@@H]1CCCN(c2ncnc3[nH]ncc23)C1` [Example 193], the pIC50 was over 7.00.

In turn, `N#Cc1c(N)ncnc1N1CCCC(NC(=O)CNc2ccccc2)C1` (stereo not drawn) [Example 463] had a pIC50 of under 5.00. With `CCOc1ccccc1NCC(=O)N[C@@H]1CCCN(c2ncnc3[nH]ccc23)C1` [Example 310] the figure was 6.00 to 7.00; with `Cn1nc(C(C)(C)C)cc1NCC(=O)NC1CCCN(c2ncnc3[nH]ccc23)C1` (stereo not drawn) [Example 57, (N-(1-(7H-pyrrolo[2,3-d]pyrimidin-4-yl)piperidin-3-yl)-2-(3-ten-butyl-1-methyl-1H-pyrazol-5-ylamino)acetamide)], 5.00 to 6.00; with `O=C(N[C@@H]1CCCN(c2ncnc3[nH]ccc23)C1)C(CC(F)(F)F)Nc1ccccc1` (stereo partly drawn) [Example 123, (N—((R)-1-(7H-pyrrolo[2,3-d]pyrimidin-4-yl)piperidin-3-yl)-4,4,4-trifluoro-2-(phenylamino)butanamide)], 5.00 to 6.00. To `O=C(CNc1ccccn1)NC1CCCN(c2ncnc3[nH]ccc23)C1` (stereo not drawn) [Example 352] belongs 5.00 to 6.00. In the case of `CC(C)(C)c1ccc(C(=O)NCC(=O)NC2CCCN(c3ncnc4[nH]ccc34)C2)cc1` (stereo not drawn) [Example 95, (N-(2-(1-(7H-pyrrolo[2,3-d]pyrimidin-4-yl)piperidin-3-ylamino)-2-oxoethyl)-4-tert-butylbenzamide)], the pIC50 is 6.00 to 7.00. Consider `O=C(CNc1ccccc1)NC1CCCN(c2ncnc3[nH]cnc23)C1` (stereo not drawn) [Example 464], for which the pIC50 was under 5.00. To `COc1cc(NCC(=O)N[C@@H]2CCCN(c3ncnc4[nH]ccc34)C2)cc(C(F)(F)F)c1` [Example 327] belongs 6.00 to 7.00; to `O=C(CNC(=O)c1cccc2ccccc12)NC1CCCN(c2ncnc3[nH]ccc23)C1` (stereo not drawn) [Example 97, (N-(2-(1-(7H-pyrrolo[2,3-d]pyrimidin-4-yl)piperidin-3-ylamino)-2-oxoethyl)-1-naphthamide)], 6.00 to 7.00. With `O=C(CNc1ccccc1OCC(F)(F)F)N[C@@H]1CCCN(c2ncnc3[nH]ccc23)C1` [Example 277] the figure was 6.00 to 7.00; with `CC[C@@H](Nc1cc(F)cc(Cl)c1)C(=O)N[C@H]1CN(c2ncnc3[nH]ncc23)CC[C@@H]1C` [Example 154], over 7.00; with `O=C(CNc1cccc2ccccc12)NC1CCCN(c2ncnc3[nH]ccc23)C1` (stereo not drawn) [Example 46, (N-(1-(7H-pyrrolo[2,3-d]pyrimidin-4-yl)piperidin-3-yl)-2-(naphthalen-1-ylamino)acetamide)], over 7.00. Compound `O=C(CNc1cccc(-c2nnco2)c1)N[C@@H]1CCCN(c2ncnc3[nH]ccc23)C1` [Example 390] had a negative-log IC50 (pIC50) of 5.00 to 6.00.

Consider `O=C(CNc1cccc(Oc2ccccc2)c1)NC1CCCN(c2ncnc3[nH]ccc23)C1` (stereo not drawn) [Example 42, (N-(1-(7H-pyrrolo[2,3-d]pyrimidin-4-yl)piperidin-3-yl)-2-(3-phenoxyphenylamino)acetamide)], for which the pIC50 is 6.00 to 7.00. With `O=C(CNc1ccncc1)NC1CCCN(c2ncnc3[nH]ccc23)C1` (stereo not drawn) [Example 353] the figure was under 5.00; with `N#Cc1c(F)cccc1NCC(=O)N[C@@H]1CCCN(c2ncnc3[nH]ccc23)C1` [Example 409], 5.00 to 6.00. With `C[C@@H](O)[C@@H](Nc1cc(F)cc(Cl)c1)C(=O)N[C@H]1CN(c2ncnc3[nH]ncc23)CC[C@@H]1C` [Example 226] the figure was over 7.00; with `Cc1cccc(NCC(=O)NC2CCCN(c3ncnc4[nH]ccc34)C2)c1C` (stereo not drawn) [Example 84, (N-(1-(7H-pyrrolo[2,3-d]pyrimidin-4-yl)piperidin-3-yl)-2-(2,3-dimethylphenylamino)acetamide)], 6.00 to 7.00. `CC1CCCN(S(=O)(=O)c2ccccc2NCC(=O)N[C@@H]2CCCN(c3ncnc4[nH]ncc34)C2)C1` (stereo partly drawn) [Example 370]: the pIC50 is over 7.00.

With `Cc1ccc(C)n1-c1cccc(NCC(=O)N[C@@H]2CCCN(c3ncnc4[nH]ccc34)C2)c1` [Example 302], the pIC50 is 6.00 to 7.00. With `CC1CCCN1S(=O)(=O)c1ccccc1NCC(=O)N[C@@H]1CCCN(c2ncnc3[nH]ncc23)C1` (stereo partly drawn) [Example 189] the figure was over 7.00; with `Nc1ncnc(N2CCC[C@@H](NC(=O)CNc3cc(Cl)cc(Cl)c3)C2)c1CCCO` [Example 320], 6.00 to 7.00; with `CC1(C)CCCN(S(=O)(=O)c2ccccc2NCC(=O)N[C@@H]2CCCN(c3ncnc4[nH]ncc34)C2)C1` [Example 198], over 7.00. To `CC[C@H](C)[C@@H](Nc1cc(F)cc(Cl)c1)C(=O)N[C@@H]1CCCN(c2ncnc3[nH]ncc23)C1` [Example 192] belongs over 7.00; to `CC(C)(C)[C@@H](Nc1cc(Cl)cc(Cl)c1)C(=O)N[C@@H]1CCCN(c2ncnc3[nH]ccc23)C1` [Example 202], over 7.00; to `O=C(CNc1cccc2c1CCC2)NC1CCCN(c2ncnc3[nH]ccc23)C1` (stereo not drawn) [Example 45, (N-(1-(7H-pyrrolo[2,3-d]pyrimidin-4-yl)piperidin-3-yl)-2-(2,3-dihydro-1H-inden-4-ylamino)acetamide)], over 7.00.

In the case of `O=C(N[C@@H]1CCCN(c2ncnc3[nH]cc(F)c23)C1)[C@H](Nc1cc(F)cc(Cl)c1)C1CC1` [Example 138, (R)-2-(3-chloro-5-fluorophenylamino)-2-cyclopropyl-N—((R)-1-(5-fluoro-7H-pyrrolo[2,3-d]pyrimidin-4-yl)piperidin-3-yl)acetamide], the pIC50 was 6.00 to 7.00. `O=C(CNc1ccccc1)N(Cc1ccccc1)C1CCCN(c2ncnc3[nH]ccc23)C1` (stereo not drawn) [Example 86, (N-(1-(7H-pyrrolo[2,3-d]pyrimidin-4-yl)piperidin-3-yl)-N-benzyl-2-(phenylamino)acetamide)] had a pIC50 of 5.00 to 6.00. To `O=C(CNc1cccc2ccccc12)N[C@@H]1CCCN(c2ncnc3[nH]ccc23)C1` [Example 274] belongs 6.00 to 7.00.

`C[C@@H](Nc1cc(F)cc(Cl)c1)C(=O)N[C@@H]1CCCN(c2ncnc3[nH]ccc23)C1` [Example 232] gave a pIC50 of over 7.00. With `Cn1ncc2c(N3CCC[C@@H](NC(=O)[C@H](Nc4cc(F)cc(Cl)c4)C4CC4)C3)ncnc21` [Example 137, (R)-2-(3-chloro-5-fluorophenylamino)-2-cyclopropyl-N—((R)-1-(1-methyl-1H-pyrazolo[3,4-d]pyrimidin-4-yl)piperidin-3-yl)acetamide] the figure was 5.00 to 6.00. With `C[C@H](O)[C@@H](Nc1cc(Cl)cc(Cl)c1)C(=O)N[C@@H]1CCCN(c2ncnc3[nH]ccc23)C1` [Example 181] the figure was over 7.00; with `CC[C@@H](Nc1cccc(Cl)c1)C(=O)N[C@@H]1CCCN(c2ncnc3[nH]ncc23)C1` [Example 131, (R)—N—((R)-1-(1H-pyrazolo[3,4-d]pyrimidin-4-yl)piperidin-3-yl)-2-(3-chlorophenylamino)butanamide], over 7.00. As for `O=C(CNc1ccc2c(c1)OCO2)NC1CCCN(c2nccc3[nH]ccc23)C1` (stereo not drawn) [Example 335], the pIC50 is under 5.00. Consider `O=C(CNc1cc(Cl)ccc1Cl)NC1CCCN(c2ncnc3[nH]ccc23)C1` (stereo not drawn) [Example 35, (N-(1-(7H-pyrrolo[2,3-d]pyrimidin-4-yl)piperidin-3-yl)-2-(2,5-dichlorophenylamino)acetamide)], for which the pIC50 was 6.00 to 7.00. The compound `O=C(CNc1ccc2[nH]ncc2c1)N[C@@H]1CCCN(c2ncnc3[nH]ccc23)C1` [Example 406] showed a negative logarithm of the IC50 (pIC50) of 5.00 to 6.00. With `O=C(CNc1c(F)ccc(F)c1F)N[C@@H]1CCCN(c2ncnc3[nH]ccc23)C1` [Example 411] the figure was 6.00 to 7.00; with `O=C(CNc1ccccc1S(=O)(=O)N1CCCC1)N[C@@H]1CCCN(c2ncnc3[nH]ncc23)C1` [Example 205], over 7.00.
